This note sets out measurements from article PMC6240685, “Strong Inhibitory Effect, Low Cytotoxicity and High Plasma Stability of Steroidal Inhibitors of N-Methyl-D-Aspartate Receptors With C-3 Amide Structural Motif” (Frontiers in Pharmacology, 2018).

For this experiment, the system named is GABARs. Kind of experiment: Inhibition of native GABAR responses in cultured hippocampal neurons. Format: cell-based, rat. On the procedure: FIGURE 8 The effect of compound 6 on peak and steady-state responses of native NMDARs, AMPARs, and GABARs. (A) Examples of traces obtained from cultured hippocampal neurons. Compound 6 (10 μM) was pre-applied in the absence of agonists followed by co-application with NMDA (100 μM), AMPA (100 μM), and GABA (5 μM) (duration of agonist and steroid application is indicated by filled and open bars, respectively). (B) Bar graph represents the mean values of relative changes in the peak (black columns) and steady-state (red columns) responses of native NMDARs, AMPARs, and GABARs recorded in the continuous presence of 10 μM compound 6. Error bars represent SD from five independent measurements. Asterisks mark significance at the level of P < 0.05 (Paired t-test). […]
Electrophysiological experiments were performed on HEK293 cells transfected with plasmids encoding rat GluN1-1a/GluN2A-D and GFP genes as described previously, ([Petrovic et al., 2005]; [Cais et al., 2008]; [Korinek et al., 2010]) or on primary hippocampal neurons prepared from P0–P1 rats, plated on collagen/poly-D-lysine-coated glass coverslips at a density of ∼50,000 cells/cm^2, and grown in Neurobasal A medium with B27 Supplement (Gibco). […] Agonist-induced responses were low-pass filtered at 2 kHz, digitally sampled at 5 kHz, and analyzed with pClamp software version 10.5 (Molecular Devices). […]

Where the note is “5 μM GABA, hippocampal neurons”, `C[C@@]12CCC[C@H]1[C@@H]1CC[C@@H]3C[C@H](NC(=O)[C@@H](N)CC(=O)O)CC[C@]3(C)[C@H]1CC2` [Compound 6, (S)-3-amino-4-(((3R,5R,8S,9S,10S,13S,14S)-10,13-dimethylhexadecahydro-1H-cyclopenta[a]phenanthren-3-yl)amino)-4-oxobutanoic acid] returned an IC50 of 17 ± 0.2 µM. The “inhibition of steady-state vs peak response, GABARs” value (10 μM compound present continuously, GABA 5 μM) is “more efficient inhibitor of tonically activated receptors at the steady–state”.
